Experiments:
Human δ-opioid (DOP) = target: T1, Human δ-opioid (DOP) (Homo sapiens, UniProt P41143); experiment: Radioligand binding, human δ-opioid (DOP) membranes, FlashPlate, [3H]-Bremazocine; settings: compound at 10 μM, [3H]-Bremazocine; for A1: inhibition of radioligand binding: FlashPlate
T1 construct: purchased Perkin Elmer Biosignal
Summary of the method: (§1)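 Cloned human receptor membranes were coated onto FlashPlate wells and incubated with radioligand and compound (added from a 0.5 mM DMSO daughter plate) for 1 hour at room temperature in the dark. Scintillation counting gave percent inhibition, with DMSO defining total and reference ligand defining non-specific binding.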

Human κ-Opioid (KOP) = target: T2, Human κ-Opioid (KOP) (Homo sapiens, UniProt P41145); experiment: Radioligand binding, human κ-opioid (KOP) membranes, filtration, [3H]-Diprenorphine; settings: compound at 10 μM, [3H]-Diprenorphine; for A2: inhibition of radioligand binding: filtration
T2 construct: purchased Perkin Elmer Biosignal
T2 sequence (P41145 whole entry): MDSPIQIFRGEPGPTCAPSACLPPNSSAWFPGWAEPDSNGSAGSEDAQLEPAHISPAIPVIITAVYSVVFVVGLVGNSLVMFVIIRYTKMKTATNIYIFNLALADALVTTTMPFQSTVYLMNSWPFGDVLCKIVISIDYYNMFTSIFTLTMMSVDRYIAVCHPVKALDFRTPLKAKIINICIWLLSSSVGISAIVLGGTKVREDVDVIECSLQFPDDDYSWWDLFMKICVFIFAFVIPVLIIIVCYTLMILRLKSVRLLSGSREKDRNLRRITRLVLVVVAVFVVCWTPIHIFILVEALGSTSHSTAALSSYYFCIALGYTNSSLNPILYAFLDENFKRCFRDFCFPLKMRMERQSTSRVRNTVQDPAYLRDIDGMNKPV
Summary of the method: (§2)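 Percent inhibition of radioligand binding measured on recombinant human membranes: NK1 with [125I]-Substance P, KOP with [3H]-Diprenorphine. Incubation 1 h at room temperature, then harvest onto 0.3% PEI-soaked filters, cold Tris-HCl pH 7.4 washes and scintillation counting; non-specific binding from reference ligand wells.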

Human Melanocortin (MC3) = target: T3, Human Melanocortin (MC3) (Homo sapiens, UniProt P41968); experiment: Radioligand binding, human melanocortin MC3 membranes, FlashPlate, [125I]-NDP-αMSH; settings: compound at 10 μM, [125I]-NDP-αMSH; for A3: inhibition of radioligand binding: FlashPlate
T3 construct: purchased Perkin Elmer Biosignal
T3 sequence (P41968 whole entry): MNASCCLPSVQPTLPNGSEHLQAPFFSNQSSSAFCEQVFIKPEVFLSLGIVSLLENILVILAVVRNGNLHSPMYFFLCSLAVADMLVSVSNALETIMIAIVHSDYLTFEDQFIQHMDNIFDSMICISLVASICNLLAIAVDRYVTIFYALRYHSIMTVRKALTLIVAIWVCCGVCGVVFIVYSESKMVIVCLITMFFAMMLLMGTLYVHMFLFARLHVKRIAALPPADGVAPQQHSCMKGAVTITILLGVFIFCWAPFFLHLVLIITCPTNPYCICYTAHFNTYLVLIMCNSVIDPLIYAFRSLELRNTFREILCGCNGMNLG
Summary of the method: as §1

Human Melanocortin (MC4) = target: T4, Human Melanocortin (MC4) (Homo sapiens, UniProt P32245); experiment: Radioligand binding, human melanocortin MC4 membranes, FlashPlate, [125I]-NDP-αMSH; settings: compound at 10 μM, [125I]-NDP-αMSH; for A4: inhibition of radioligand binding: FlashPlate
T4 construct: purchased Perkin Elmer Biosignal
T4 sequence (P32245 whole entry): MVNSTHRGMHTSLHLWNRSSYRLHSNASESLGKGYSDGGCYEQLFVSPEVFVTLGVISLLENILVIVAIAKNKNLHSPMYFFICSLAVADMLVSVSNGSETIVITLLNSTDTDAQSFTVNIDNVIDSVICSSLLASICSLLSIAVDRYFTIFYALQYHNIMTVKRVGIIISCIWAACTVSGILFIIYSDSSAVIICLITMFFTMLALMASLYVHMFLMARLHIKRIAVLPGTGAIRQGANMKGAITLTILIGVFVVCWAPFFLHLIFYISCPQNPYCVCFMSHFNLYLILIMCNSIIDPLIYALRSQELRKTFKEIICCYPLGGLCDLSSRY
Summary of the method: as §1

Human melanocortin (MC5) = target: T5, Human melanocortin (MC5) (Homo sapiens, UniProt P33032); experiment: Radioligand binding, human melanocortin MC5 membranes, FlashPlate, [125I]-NDP-αMSH; settings: compound at 10 μM, [125I]-NDP-αMSH; for A5: inhibition of radioligand binding: FlashPlate
T5 construct: purchased Perkin Elmer Biosignal
T5 sequence (P33032 whole entry): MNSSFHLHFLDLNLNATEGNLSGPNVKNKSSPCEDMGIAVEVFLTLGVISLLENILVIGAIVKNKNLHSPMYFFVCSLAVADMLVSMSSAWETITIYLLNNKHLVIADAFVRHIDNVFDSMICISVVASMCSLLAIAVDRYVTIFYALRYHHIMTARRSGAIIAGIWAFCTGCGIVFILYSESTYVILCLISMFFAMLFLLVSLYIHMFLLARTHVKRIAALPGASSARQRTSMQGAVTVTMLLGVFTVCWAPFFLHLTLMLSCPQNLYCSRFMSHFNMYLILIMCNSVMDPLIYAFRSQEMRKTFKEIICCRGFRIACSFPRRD
Summary of the method: as §1

[1] = target: T6, Human melanin-concentrating hormone (MCH1) (Homo sapiens, UniProt Q99705); experiment: Radioligand binding, human melanin-concentrating hormone MCH1 membranes, FlashPlate, [125I]-S36057; settings: compound at 10 μM; for A6: inhibition of radioligand binding, human melanin-concentrating hormone (MCH1): [125I]-S36057; for A6: inhibition of radioligand binding: [125I]-S36057, FlashPlate
T6 construct: purchased Perkin Elmer Biosignal
T6 sequence (Q99705 whole entry): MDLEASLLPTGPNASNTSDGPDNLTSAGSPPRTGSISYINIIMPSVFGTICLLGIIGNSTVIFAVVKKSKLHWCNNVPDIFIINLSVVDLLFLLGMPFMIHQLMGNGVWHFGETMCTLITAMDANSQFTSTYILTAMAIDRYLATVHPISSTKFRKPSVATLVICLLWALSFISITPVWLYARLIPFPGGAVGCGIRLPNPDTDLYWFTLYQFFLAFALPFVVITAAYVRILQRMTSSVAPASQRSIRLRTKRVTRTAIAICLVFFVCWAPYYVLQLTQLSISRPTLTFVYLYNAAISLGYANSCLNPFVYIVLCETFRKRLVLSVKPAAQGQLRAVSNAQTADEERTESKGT
Summary of the method: as §1

Human μ-opioid (MOP) = target: T7, Human μ-opioid (MOP) (Homo sapiens, UniProt P35372); experiment: Radioligand binding, human μ-opioid (MOP) membranes, FlashPlate, [3H]-Naloxone; settings: compound at 10 μM, [3H]-Naloxone; for A7: inhibition of radioligand binding: FlashPlate
T7 construct: purchased Perkin Elmer Biosignal
T7 sequence (P35372 whole entry): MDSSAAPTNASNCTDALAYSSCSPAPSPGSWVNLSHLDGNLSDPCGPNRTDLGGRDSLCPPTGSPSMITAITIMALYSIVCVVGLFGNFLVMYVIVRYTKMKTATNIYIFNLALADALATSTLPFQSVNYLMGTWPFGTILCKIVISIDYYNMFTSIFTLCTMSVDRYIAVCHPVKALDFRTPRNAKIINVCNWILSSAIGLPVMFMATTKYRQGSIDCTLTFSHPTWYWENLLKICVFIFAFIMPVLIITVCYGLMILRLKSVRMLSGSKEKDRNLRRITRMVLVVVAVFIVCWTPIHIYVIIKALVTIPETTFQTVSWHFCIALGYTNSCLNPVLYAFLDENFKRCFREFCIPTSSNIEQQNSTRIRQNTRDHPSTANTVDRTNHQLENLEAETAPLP
Summary of the method: as §1

Human neurokinin (NK1) = target: T8, Human neurokinin (NK1) (Homo sapiens, UniProt P25103); experiment: Radioligand binding, human neurokinin NK1 membranes, filtration, [125I]-Substance P; settings: compound at 10 μM, [125I]-Substance P; for A8: inhibition of radioligand binding: filtration
T8 construct: purchased Perkin Elmer Biosignal
T8 sequence (P25103 whole entry): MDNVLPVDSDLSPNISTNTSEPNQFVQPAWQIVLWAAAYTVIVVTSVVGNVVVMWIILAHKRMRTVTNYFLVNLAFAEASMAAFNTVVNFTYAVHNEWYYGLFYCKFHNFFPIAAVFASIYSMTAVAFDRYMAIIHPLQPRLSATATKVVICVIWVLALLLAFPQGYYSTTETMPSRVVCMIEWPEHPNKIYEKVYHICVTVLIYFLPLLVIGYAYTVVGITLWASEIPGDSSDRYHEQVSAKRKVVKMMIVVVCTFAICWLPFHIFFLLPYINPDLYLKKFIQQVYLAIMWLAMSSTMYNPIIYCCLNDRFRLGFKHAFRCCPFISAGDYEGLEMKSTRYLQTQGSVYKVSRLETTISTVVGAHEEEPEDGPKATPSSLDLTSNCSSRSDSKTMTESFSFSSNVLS
Summary of the method: as §2

[2] = target: T9, Human neuropeptide Y (NPY-Y1) (Homo sapiens, UniProt P25929); experiment: Radioligand binding, human neuropeptide Y NPY-Y1 membranes, FlashPlate, [125I]-PYY; settings: compound at 10 μM, [125I]-PYY; for A9: inhibition of radioligand binding: FlashPlate
T9 construct: purchased Perkin Elmer Biosignal
T9 sequence (P25929 1-384): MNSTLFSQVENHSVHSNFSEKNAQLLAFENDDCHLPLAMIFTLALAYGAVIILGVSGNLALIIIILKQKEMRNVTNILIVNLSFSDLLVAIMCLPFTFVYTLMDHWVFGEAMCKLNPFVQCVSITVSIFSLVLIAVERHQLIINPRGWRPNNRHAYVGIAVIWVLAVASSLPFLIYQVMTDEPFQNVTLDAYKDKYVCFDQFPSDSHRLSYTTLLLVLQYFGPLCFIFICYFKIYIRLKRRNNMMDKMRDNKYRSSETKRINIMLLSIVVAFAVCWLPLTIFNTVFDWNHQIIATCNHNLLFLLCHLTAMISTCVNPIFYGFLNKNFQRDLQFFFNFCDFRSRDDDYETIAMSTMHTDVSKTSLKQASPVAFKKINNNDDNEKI
Summary of the method: as §1

Human opioid (ORL1) = target: T10, Human opioid (ORL1) (Homo sapiens, UniProt P41146); experiment: Radioligand binding, human opioid ORL1 membranes, FlashPlate, [125I]-Nociceptin; settings: compound at 10 μM, [125I]-Nociceptin; for A10: inhibition of radioligand binding: FlashPlate
T10 construct: purchased Perkin Elmer Biosignal
T10 sequence (P41146 whole entry): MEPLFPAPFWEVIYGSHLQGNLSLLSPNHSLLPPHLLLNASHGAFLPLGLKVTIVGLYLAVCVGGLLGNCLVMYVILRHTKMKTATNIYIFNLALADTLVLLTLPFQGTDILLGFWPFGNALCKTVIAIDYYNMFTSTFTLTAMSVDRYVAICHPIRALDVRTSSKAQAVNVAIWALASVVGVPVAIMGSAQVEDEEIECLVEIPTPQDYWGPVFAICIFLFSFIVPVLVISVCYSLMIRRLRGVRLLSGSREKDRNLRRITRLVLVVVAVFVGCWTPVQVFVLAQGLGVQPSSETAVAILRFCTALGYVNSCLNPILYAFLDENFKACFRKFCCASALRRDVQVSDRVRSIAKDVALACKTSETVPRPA
Summary of the method: as §1

Mouse urotensin (mUR2) = target: T11, Mouse urotensin (mUR2) (Mus musculus, UniProt Q8VIH9); experiment: Radioligand binding, mouse urotensin mUR2 membranes, FlashPlate, [125I]-Urotensin II; settings: compound at 10 μM, [125I]-Urotensin II; for A11: inhibition of radioligand binding: FlashPlate
T11 construct: purchased Perkin Elmer Biosignal
T11 sequence (Q8VIH9 1-385): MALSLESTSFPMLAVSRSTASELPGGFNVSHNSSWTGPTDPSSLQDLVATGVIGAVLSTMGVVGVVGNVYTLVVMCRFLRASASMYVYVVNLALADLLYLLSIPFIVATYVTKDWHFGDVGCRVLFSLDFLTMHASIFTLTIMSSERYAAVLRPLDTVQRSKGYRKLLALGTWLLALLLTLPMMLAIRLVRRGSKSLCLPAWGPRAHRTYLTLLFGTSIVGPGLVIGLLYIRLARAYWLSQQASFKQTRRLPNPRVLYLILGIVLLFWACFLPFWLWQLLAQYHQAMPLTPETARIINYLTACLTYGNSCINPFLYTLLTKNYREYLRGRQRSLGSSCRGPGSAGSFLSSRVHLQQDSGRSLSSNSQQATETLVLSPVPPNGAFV
Summary of the method: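 Cloned mouse urotensin (mUR2) receptor membranes from Perkin Elmer Biosignal were immobilized in FlashPlate microplates using a proprietary coating. Each well got 19.5 μl buffer, then 0.5 μl of DMSO, reference ligand, or compound. Adding 5 μl of [125I]-Urotensin II, diluted to 5× final concentration in binding buffer, started binding. Plates were sealed with TopSeal-A and incubated 1 hour at room temperature in the dark. Wells were counted for 30 seconds each on a TopCount after a 60-second delay, and percentage inhibition was calculated.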

T1 sequence (P41143 whole entry): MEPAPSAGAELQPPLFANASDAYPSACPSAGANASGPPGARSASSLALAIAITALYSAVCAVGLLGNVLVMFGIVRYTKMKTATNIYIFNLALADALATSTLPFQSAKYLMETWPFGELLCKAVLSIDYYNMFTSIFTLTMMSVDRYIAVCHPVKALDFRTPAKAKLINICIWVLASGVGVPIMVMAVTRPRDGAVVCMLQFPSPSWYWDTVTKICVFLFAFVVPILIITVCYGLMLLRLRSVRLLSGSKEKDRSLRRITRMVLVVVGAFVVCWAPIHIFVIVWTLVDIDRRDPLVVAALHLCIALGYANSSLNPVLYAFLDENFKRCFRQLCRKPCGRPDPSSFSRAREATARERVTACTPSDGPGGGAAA

Row | Compound | A1: inhibition of radioligand binding, human δ-opioid (DOP) (Human δ-opioid (DOP)) | A2: inhibition of radioligand binding, human κ-opioid (KOP) (Human κ-Opioid (KOP)) | A3: inhibition of radioligand binding, human melanocortin (MC3) (Human Melanocortin (MC3)) | A5: inhibition of radioligand binding, human melanocortin (MC5) (Human melanocortin (MC5)) | A6: inhibition of radioligand binding, human melanin-concentrating hormone (MCH1) [1] | A7: inhibition of radioligand binding, human μ-opioid (MOP) (Human μ-opioid (MOP)) | A8: inhibition of radioligand binding, human neurokinin (NK1) (Human neurokinin (NK1)) | A9: inhibition of radioligand binding, human neuropeptide Y (NPY-Y1) [2] | A11: inhibition of radioligand binding, mouse urotensin (mUR2) (Mouse urotensin (mUR2)) | A1: inhibition of radioligand binding (Human δ-opioid (DOP)) | A2: inhibition of radioligand binding (Human κ-Opioid (KOP)) | A3: inhibition of radioligand binding (Human Melanocortin (MC3)) | A4: inhibition of radioligand binding (Human Melanocortin (MC4)) | A5: inhibition of radioligand binding (Human melanocortin (MC5)) | A6: inhibition of radioligand binding [1] | A7: inhibition of radioligand binding (Human μ-opioid (MOP)) | A8: inhibition of radioligand binding (Human neurokinin (NK1)) | A9: inhibition of radioligand binding [2] | A10: inhibition of radioligand binding (Human opioid (ORL1)) | A11: inhibition of radioligand binding (Mouse urotensin (mUR2)) | also measured
1 | NCCCC(=O)NC1C(OCc2ccc(Cl)cc2)OC(COCc2ccccc2)C(O)C1OCc1ccc2ccccc2c1 (single isomer, unassigned) [compound 497] | − (“−” indicates less than 50% inhibition at 10 μM) | − (“−” indicates less than 50% inhibition at 10 μM) | − (“−” indicates less than 50% inhibition at 10 μM) | + (“+” indicates greater than 50% inhibition at 10 μM) | − (“−” indicates less than 50% inhibition at 10 μM) | − (“−” indicates less than 50% inhibition at 10 μM) | + (“+” indicates greater than 50% inhibition at 10 μM) | − (“−” indicates less than 50% inhibition at 10 μM) | − (“−” indicates less than 50% inhibition at 10 μM) |  |  |  |  |  |  |  |  |  |  |  | A4: inhibition of radioligand binding, human melanocortin (MC4) (Human Melanocortin (MC4); 10 µM): − (“−” indicates less than 50% inhibition at 10 μM); A10: inhibition of radioligand binding, human opioid (ORL1) (Human opioid (ORL1); 10 µM): − (“−” indicates less than 50% inhibition at 10 μM)
2 | N=C(N)NCC(=O)N[C@H]1C(OCc2ccc(Cl)cc2)O[C@H](COCc2ccc3ccccc3c2)[C@@H](O)[C@@H]1OCc1ccc2ccccc2c1 (stereo partly drawn) [compound 512] | − (“−” indicates less than 50% inhibition at 10 μM) |  | + (“+” indicates greater than 50% inhibition at 10 μM) | + (“+” indicates greater than 50% inhibition at 10 μM) | + (“+” indicates greater than 50% inhibition at 10 μM) | + (“+” indicates greater than 50% inhibition at 10 μM) | + (“+” indicates greater than 50% inhibition at 10 μM) |  | − (“−” indicates less than 50% inhibition at 10 μM) |  |  |  |  |  |  |  |  |  |  |  | A2: inhibition of radioligand binding, human κ-opioid (KOP) (Human κ-Opioid (KOP); 10 µM): − (“−” indicates less than 50% inhibition at 10 μM); A4: inhibition of radioligand binding, human melanocortin (MC4) (Human Melanocortin (MC4)): + (“+” indicates greater than 50% inhibition at 10 μM); A9: inhibition of radioligand binding, human neuropeptide Y (NPY-Y1) ([2]; 10 µM): − (“−” indicates less than 50% inhibition at 10 μM); A10: inhibition of radioligand binding, human opioid (ORL1) (Human opioid (ORL1)): + (“+” indicates greater than 50% inhibition at 10 μM)
3 | COCC1OC(OCCc2ccccc2)C(NC(=O)CCN)C(OCc2ccc3ccccc3c2)C1O (stereo not drawn) [compound 227] |  |  |  |  |  |  |  |  |  | − (“−” indicates less than 50% inhibition at 10 μM) | − (“−” indicates less than 50% inhibition at 10 μM) | − (“−” indicates less than 50% inhibition at 10 μM) | − (“−” indicates less than 50% inhibition at 10 μM) | − (“−” indicates less than 50% inhibition at 10 μM) | − (“−” indicates less than 50% inhibition at 10 μM) | − (“−” indicates less than 50% inhibition at 10 μM) | + (“+” indicates greater than 50% inhibition at 10 μM) | − (“−” indicates less than 50% inhibition at 10 μM) | − (“−” indicates less than 50% inhibition at 10 μM) | − (“−” indicates less than 50% inhibition at 10 μM) | 
4 | CSC1OC(COCc2ccc3ccccc3c2)C(O)C(OCc2ccccc2)C1NC(=O)CNC(=N)N (stereo not drawn) [compound 260] |  |  |  |  |  |  |  |  |  | − (“−” indicates less than 50% inhibition at 10 μM) | − (“−” indicates less than 50% inhibition at 10 μM) | − (“−” indicates less than 50% inhibition at 10 μM) | + (“+” indicates greater than 50% inhibition at 10 μM) | − (“−” indicates less than 50% inhibition at 10 μM) | − (“−” indicates less than 50% inhibition at 10 μM) | − (“−” indicates less than 50% inhibition at 10 μM) | − (“−” indicates less than 50% inhibition at 10 μM) | − (“−” indicates less than 50% inhibition at 10 μM) | − (“−” indicates less than 50% inhibition at 10 μM) | − (“−” indicates less than 50% inhibition at 10 μM) | 
5 | CSC1OC(COCc2ccc(-c3ccccc3)cc2)C(O)C(OCc2ccccc2)C1NC(=O)CCNC(=N)N (stereo not drawn) [compound 257] |  |  |  |  |  |  |  |  |  | − (“−” indicates less than 50% inhibition at 10 μM) | − (“−” indicates less than 50% inhibition at 10 μM) | − (“−” indicates less than 50% inhibition at 10 μM) | + (“+” indicates greater than 50% inhibition at 10 μM) | − (“−” indicates less than 50% inhibition at 10 μM) | − (“−” indicates less than 50% inhibition at 10 μM) | − (“−” indicates less than 50% inhibition at 10 μM) | + (“+” indicates greater than 50% inhibition at 10 μM) | − (“−” indicates less than 50% inhibition at 10 μM) | − (“−” indicates less than 50% inhibition at 10 μM) | − (“−” indicates less than 50% inhibition at 10 μM) | 
6 | COCC1OC(OCc2ccc3ccccc3c2)C(NC(=O)CCNC(=N)N)C(OCc2ccc3ccccc3c2)C1O (stereo not drawn) [compound 547] | − (“−” indicates less than 50% inhibition at 10 μM) | − (“−” indicates less than 50% inhibition at 10 μM) | − (“−” indicates less than 50% inhibition at 10 μM) | − (“−” indicates less than 50% inhibition at 10 μM) | + (“+” indicates greater than 50% inhibition at 10 μM) | − (“−” indicates less than 50% inhibition at 10 μM) | + (“+” indicates greater than 50% inhibition at 10 μM) | − (“−” indicates less than 50% inhibition at 10 μM) | − (“−” indicates less than 50% inhibition at 10 μM) |  |  |  |  |  |  |  |  |  |  |  | A4: inhibition of radioligand binding, human melanocortin (MC4) (Human Melanocortin (MC4)): − (“−” indicates less than 50% inhibition at 10 μM); A10: inhibition of radioligand binding, human opioid (ORL1) (Human opioid (ORL1)): − (“−” indicates less than 50% inhibition at 10 μM)
